Source: patent publication US20230233482A1, “COMPOSITIONS COMPRISING THYMOL FOR USE IN THE TREATMENT OF INFLAMMATORY OR FUNCTIONAL BOWEL DISORDERS BY MODULATING THE ENDOCANNABINOID SYSTEM” (priority 2020, published 2023)

Assays:
[1] = weaned piglets, 25.5-510 mg thymol/kg feed
Experimental: […] piglets (Duroc—Large White) weaned at 28 days of age and with a body weight (BW) of 7.71±1.00 kg were divided into 40 pens (4 piglets per pen, castrated males and females were placed in separate pens) and randomly assigned to one of the following experimental groups (n=32): control group fed with the basal diet (T1), a group fed with the basal diet supplemented with 25.5 mg of thymol/kg feed (T2), a group fed with the basal diet supplemented with 51 mg of thymol/kg feed (T3), a group fed with the basal diet supplemented with 153 mg of thymol/kg feed (T4) and a group fed with the basal diet supplemented with 510 mg of thymol/kg feed (T5). Thymol was provided in a form embedded (microencapsulated) in a lipid matrix (Vetagro SpA, Reggio Emilia, Italy). Concentrations of thymol were selected to meet or exceed the upper limit of inclusion in food and feed established by the European Agency for the Evaluation of Medicinal Products and for the feed. The basal feed was formulated to meet or exceed the nutritional requirements of pigs according to the National Research Council, and feed and water were provided ad libitum (the composition of the basal diet is reported in Table 1). The health condition of the animals was monitored during the study. The piglets were individually weighed at the beginning (day 0) and end (day 14) of the study. Growth parameters, such as FI, ADFI, ADG and F:G (FI—feed intake; ADFI—Average daily feed intake; ADG—Average daily gain; F:G—Feed to gain ratio), were measured in the animals housed in each pen on day 14 (d14) of the experiment.
Animals were blocked in a completely randomised design and data were analysed using GraphPad Prism® software (GraphPad Software, Inc., La Jolla, Calif., USA). Data were analysed using one-way ANOVA followed by Tukey's post hoc test to detect differences among treatments. The pen was the experimental unit for growth performance, whereas the pig was the experimental unit for gene expression. Differences were considered significant at P<0.05, and trends were defined at 0.05≤P<0.1.

CB1 mRNA = assay: Gene expression (real-time PCR) of cannabinoid receptor 1 in duodenal and ileal mucosa at d14; type: in vivo, pigs
Experimental: (§1) At the end of the study, 8 animals from each treatment group were sacrificed, samples were collected, and analysed. Duodenal and ileal mucosal scrapings were collected. The duodenum and ileum were longitudinally cut to expose the mucosa, washed with a phosphate-buffered saline solution to remove mucus and digesta, then scraped gently, packed, immediately frozen in liquid nitrogen and stored at -80° C. until the analyses of gene and protein expression. Gene expression was analysed using the method reported by […] et al. [The Journal of Nutrition. 2011; 141:2139-45]. Duodenal and ileal scraping samples obtained on d14 of the study were disrupted by grinding them in liquid nitrogen with mortar and pestle, and then homogenised using a TissueLyser (Qiagen, Hilden, Germany). Total RNA was isolated using a NucleoSpin® RNA Kit (Macherey-Nagel, Düren, Germany) according to the manufacturer's instructions. Genomic DNA contamination was removed by treating the samples with the deoxyribonuclease supplied in the extraction kit ([…], RNase-free; Macherey-Nagel). The RNA yield and quality were determined spectrophotometrically by measuring the absorbance at 260 and 280 nm (A260 and A280 nm, respectively) (Microvolume Mode with SmartPath® Technology, Denovix). One microgram of RNA was reverse transcribed using the iScript cDNA Synthesis Kit (Bio-Rad Laboratories Inc., Hercules, Calif., USA) according to the manufacturer's instructions. Real-time PCR was performed using an iCycler Thermal Cycler system and SybrGreen Supermix (Bio-Rad Laboratories Inc.). […] The average threshold cycle (CT) was determined for each gene of interest, and the geometric average was calculated for HK by assuming that CT is the number of cycles required to reach a fixed arbitrary threshold. Delta CT was calculated, then a modification of the 2^-ΔΔCT method [Livak K J, et al., Methods 2001; 25:402-8] was used to analyse the relative expression (fold changes), which was calculated relative to the control group. […]

CB2 mRNA = assay: Gene expression (real-time PCR) of cannabinoid receptor 2 in duodenal and ileal mucosa at d14; type: in vivo, pigs
Experimental: At the end of the study, 8 animals from each treatment group were sacrificed, samples were collected, and analysed. Duodenal and ileal mucosal scrapings were collected. The duodenum and ileum were longitudinally cut to expose the mucosa, washed with a phosphate-buffered saline solution to remove mucus and digesta, then scraped gently, packed, immediately frozen in liquid nitrogen and stored at -80° C. until the analyses of gene and protein expression. Gene expression was analysed using the method reported by […] et al. [The Journal of Nutrition. 2011; 141:2139-45]. Duodenal and ileal scraping samples obtained on d14 of the study were disrupted by grinding them in liquid nitrogen with mortar and pestle, and then homogenised using a TissueLyser (Qiagen, Hilden, Germany). Total RNA was isolated using a NucleoSpin® RNA Kit (Macherey-Nagel, Düren, Germany) according to the manufacturer's instructions. Genomic DNA contamination was removed by treating the samples with the deoxyribonuclease supplied in the extraction kit ([…], RNase-free; Macherey-Nagel). The RNA yield and quality were determined spectrophotometrically by measuring the absorbance at 260 and 280 nm (A260 and A280 nm, respectively) (Microvolume Mode with SmartPath® Technology, Denovix). One microgram of RNA was reverse transcribed using the iScript cDNA Synthesis Kit (Bio-Rad Laboratories Inc., Hercules, Calif., USA) according to the manufacturer's instructions. Real-time PCR was performed using an iCycler Thermal Cycler system and SybrGreen Supermix (Bio-Rad Laboratories Inc.). The thermocycling protocol provided for an initial denaturation step for 1 min and 30 seconds at 95° C., followed by 40 cycles of denaturation at 95° C. for 15 seconds and 30 seconds of annealing and extension at 60° C. After amplification, a melting curve analysis was performed for all the samples, with slow heating from 55° C. to 95° C. at a rate of 0.5° C./s to validate the absence of non-specific products. Gene expression was normalised to a housekeeping gene (HK) encoding portions of porcine ribosomal subunit 60 S, in particular ribosomal protein […] (RPL35). The average threshold cycle (CT) was determined for each gene of interest, and the geometric average was calculated for HK by assuming that CT is the number of cycles required to reach a fixed arbitrary threshold. Delta CT was calculated, then a modification of the 2^-ΔΔCT method [Livak K J, et al., Methods 2001; 25:402-8] was used to analyse the relative expression (fold changes), which was calculated relative to the control group. The sequences, accession numbers in the EMBL database/GenBank, expected product lengths and references for porcine primers are reported in Table 2. […]

FAAH mRNA = assay: Gene expression (real-time PCR) of ECS enzyme FAAH in duodenal and ileal mucosa at d14; type: in vivo, pigs
Experimental: (§2) At the end of the study, 8 animals from each treatment group were sacrificed, samples were collected, and analysed. Duodenal and ileal mucosal scrapings were collected. The duodenum and ileum were longitudinally cut to expose the mucosa, washed with a phosphate-buffered saline solution to remove mucus and digesta, then scraped gently, packed, immediately frozen in liquid nitrogen and stored at -80° C. until the analyses of gene and protein expression. Gene expression was analysed using the method reported by […] et al. [The Journal of Nutrition. 2011; 141:2139-45]. […] The RNA yield and quality were determined spectrophotometrically by measuring the absorbance at 260 and 280 nm (A260 and A280 nm, respectively) (Microvolume Mode with SmartPath® Technology, Denovix). […] The average threshold cycle (CT) was determined for each gene of interest, and the geometric average was calculated for HK by assuming that CT is the number of cycles required to reach a fixed arbitrary threshold. Delta CT was calculated, then a modification of the 2^-ΔΔCT method [Livak K J, et al., Methods 2001; 25:402-8] was used to analyse the relative expression (fold changes), which was calculated relative to the control group. […]

TRPV1 mRNA = assay: Gene expression (real-time PCR) of gut chemosensing marker TRPV1 in duodenal and ileal mucosa at d14; type: in vivo, pigs; settings: for TRPV1 mRNA levels compared to the control group: ileum, d14, P=0.0183
Experimental: as §1

OR1G1 mRNA = assay: Gene expression (real-time PCR) of gut chemosensing marker OR1G1 in duodenal and ileal mucosa at d14; type: in vivo, pigs
Experimental: as §2

With `Cc1ccc(C(C)C)c(O)c1` [thymol] as the compound, how does the health conditions ([1]; 14 days) read?
Its health conditions is “good health conditions”.

And the mortality ([1]; 14 days)?
Its mortality is “no mortality”.

What about the “differences in average daily feed intake (ADFI) among the treatment groups” value ([1]; day 14, data not shown) of the same compound?
The value was “not observed”.

What about the “differences in average daily gain (ADG) among the treatment groups” value ([1]; day 14, data not shown) of the same compound?
Its value is “not observed”.

What about the “differences in body weight (BW) among the treatment groups” value ([1]; day 14, data not shown) of the same compound?
Its value is “not observed”.

What about the “differences in feed intake (FI) among the treatment groups” value ([1]; day 14, data not shown) of the same compound?
The value was “not observed”.

And the “differences in feed to gain ratio (F:G) among the treatment groups” value ([1]; day 14, data not shown)?
The value was “not observed”.

What about the “level of the CB1 mRNA compared to the control group” value (CB1 mRNA; duodenum, group T5 (510 mg thymol/kg feed), d14, P=0.0209) of the same compound?
The value was “significantly increased”.

And the “level of the CB1 mRNA compared to the control group” value (CB1 mRNA; ileum, group T4 (153 mg thymol/kg feed), d14, P=0.0054)?
Its value is “significantly increased”.

And the “level of the CB1 mRNA compared to the control group” value (CB1 mRNA; ileum, group T5 (510 mg thymol/kg feed), d14, P=0.0054)?
The value was “significantly increased”.

And the “levels of the CB2 mRNA compared to the control group” value (CB2 mRNA; duodenum, group T4 (153 mg thymol/kg feed), d14, P=0.004)?
Its value is “Significantly increased”.

What about the “levels of the CB2 mRNA compared to the control group” value (CB2 mRNA; duodenum, group T5 (510 mg thymol/kg feed), d14, P=0.004) of the same compound?
The value was “Significantly increased”.

What about the “levels of the CB2 mRNA compared to the control group” value (CB2 mRNA; ileum, group T4 (153 mg thymol/kg feed), d14, P=0.0162) of the same compound?
Its value is “Significantly increased”.

What about the “levels of the CB2 mRNA compared to the control group” value (CB2 mRNA; ileum, group T5 (510 mg thymol/kg feed), d14, P=0.0162) of the same compound?
The value was “Significantly increased”.

What about the “differences in FAAH mRNA levels” value (FAAH mRNA; duodenum, all thymol groups (25.5-510 mg/kg feed), d14) of the same compound?
The value was “not observed”.

What about the “FAAH mRNA levels compared to the control group” value (FAAH mRNA; ileum, group T4 (153 mg thymol/kg feed), d14, P=0.0028) of the same compound?
Its value is “significantly increased”.

And the “TRPV1 mRNA level” value (TRPV1 mRNA; duodenum, 510 mg thymol/kg of feed, d14, P=0.0382)?
Its value is “increased”.

And the “TRPV1 mRNA levels compared to the control group” value (TRPV1 mRNA; group T4 (153 mg thymol/kg feed))?
Its value is “increased”.

And the “TRPV1 mRNA levels compared to the control group” value (TRPV1 mRNA; group T5 (510 mg thymol/kg feed))?
The value was “increased”.

What about the “OR1G1 mRNA expression compared to the control group” value (OR1G1 mRNA; duodenum, 510 mg thymol/kg feed (T5), d14, P=0.0210) of the same compound?
The value was “higher levels”.

What about the “OR1G1 mRNA expression compared to the control group” value (OR1G1 mRNA; ileum, 153 mg thymol/kg feed (T4), d14, P=0.0235) of the same compound?
Its value is “higher levels”.
